Data as given in patent US5519012A, “Inclusion complexes of optically active 1,4-dihydropyridines with methyl-β-cyclodextrin” (LEK, tovarna farmacevtskih in kemicnih izdelkov, d.d., …, priority 1992, dated 1996).
In brackets after ≈: the same amount, converted by molar mass. Counter-ions that a name gives are not always drawn.

Experiments:
physchem = details: water
[1] = Water solubility of racemic and optically active dihydropyridines, free or bound in inclusion complexes (room temperature, filtrates of saturated solutions, liquid chromatography); details: for Water solubility, complex. HE-β-CD: bound in inclusion complex with HE-β-CD (2-hydroxyethyl-cyclodextrin); for Water solubility, complex. HP-β-CD: bound in inclusion complex with HP-β-CD (2-hydroxypropyl-cyclodextrin); for Water solubility, complex. Me-β-CD: bound in inclusion complex with Me-β-CD; for Water solubility, complex. β-CD: bound in inclusion complex with β-CD; for Water solubility of particular enantiomers (in words): (-) compared with (+) nicardipine.HCl; for Water solubility, uncomplex.: free form
[2] = one enantiomer versus the other; literature; cited from earlier work
[3] = by means of DIMEB (heptakis-(2,6-di-O-dimethyl)-β-cyclodextrin); cited from earlier work

SMILES | solubility (physchem) [mg/mL] | Water solubility, complex. HE-β-CD ([1]; room temperature) [mg/mL] | Water solubility, complex. HP-β-CD ([1]; room temperature) [mg/mL] | Water solubility, complex. Me-β-CD ([1]; room temperature) [mg/mL] | Water solubility, complex. β-CD ([1]; room temperature) [mg/mL] | also measured
COC(=O)C1=C(C)NC(C)=C(C(=O)OCCN(C)Cc2ccccc2)C1c1cccc([N+](=O)[O-])c1 (racemic) [(±)nicardipine.HCl, 2-(N-benzyl-N-methyl-amino)-ethylmethyl-2,6-dimethyl-4-(3-nitrophenyl) -1,4-dihydropyridine-3,5-dicarboxylatehydrochloride] | 1.5 | 53.8 | 97.9 | 145.8 | 54.8 | –
CCOC(=O)C1=C(C)NC(C)=C(C(=O)OC)C1c1cccc([N+](=O)[O-])c1 (racemic) [(±)nitrendipine, 3-ethyl-5-methyl-1,4-dihydro-2,6-dimethyl-4-(3-nitrophenyl)-3,5-pyridinedicarboxylate] | 0.0006 (≈ 1.66 µM) | – | – | – | – | –
CCOC(=O)C1=C(COCCN)NC(C)=C(C(=O)OC)[C@H]1c1ccccc1Cl (single isomer, unassigned) [R-(-) isomer of amlodipine] | – | – | – | – | – | activity relative to the other enantiomer [2]: substantially higher activity
COC(=O)C1=C(C)NC(C)=C(C(=O)OCCN(C)Cc2ccccc2)C1c1cccc([N+](=O)[O-])c1 (single isomer, unassigned; (+)) [(+) nicardipine] | – | – | – | – | – | activity relative to the other enantiomer [2]: three times higher activity
COC(=O)C1=C(C)NC(C)=C(C(=O)OCCN(C)Cc2ccccc2)C1c1cccc([N+](=O)[O-])c1 (single isomer, unassigned; (+)) [(+)nicardipine.HCl] | – | 52.7 | 59.9 | 133.1 | 15.8 | Water solubility of particular enantiomers (in words) [1]: different water solubilities; Water solubility, uncomplex. ([1]; room temperature): 0.4 mg/mL
COC(=O)C1=C(C)NC(C)=C(C(=O)OCCN(C)Cc2ccccc2)C1c1cccc([N+](=O)[O-])c1 (single isomer, unassigned; (-)) [(-)nicardipine.HCl] | – | 54.2 | 68.0 | 127.4 | 15.6 | Water solubility of particular enantiomers (in words) [1]: different water solubilities; Water solubility, uncomplex. ([1]; room temperature): 0.1 mg/mL; Water solubility, complex. HP-β-CD (molar ratio 1:2) ([1]; molar ratio of the complex (-)NC.HCl:HP CD amounts to 1:2, room temperature): 130.0 mg/mL
CCOC(=O)C1=C(COCCN)NC(C)=C(C(=O)OC)C1c1ccccc1Cl (centres unmarked) [amlodipine besylate, 3-ethyl-5-methyl-2-[(2-aminoethoxy)methyl]-4-(2-chlorophenyl) 1,4-dihydro-6-methyl-3,5-pyridinedicarboxylate-monobenzensulfonate] | 1.1 | 4.5 | 17.0 | 25.0 | 10.0 | Water solubility (in words) ([1]; comparison in words, inclusion complexes with Me-β-CD): improved water solubility
CCOC(=O)C1=C(C)NC(C)=C(C(=O)OC)C1c1cccc(Cl)c1Cl (centres unmarked) [felodipine, ethylmethyl-1,4-dihydro-2,6-dimethyl-4-(2,3-dichlorophenyl)-3,5-pyridinedicarboxylate] | 0.0008 (≈ 2.08 µM) | – | – | – | – | –
COc1ccc2c(c1)c(CC(=O)O)c(C)n2C(=O)c1ccc(Cl)cc1 [indometacin] | – | – | – | – | – | enhancement of water solubility [3]: 20.4 times
